The source of these data is patent US4540689A, “Penicillin derivative” (Kureha Kagaku Kogyo Kabushiki Kaisha, priority 1981, dated 1985).

Each structure is given as a SMILES string. Converted amounts (≈) assume the structure as drawn.

For one assay, the system named is Escherichia coli. Briefly: Effect on intestinal bacterial colonies, E. coli count in feces. The assay is classed as in vivo. Particulars: female ICR mice, oral 500 mg/kg/day for two days, first day after administration; before administration 6.4. As for the experimental part: (§1) Effect of the present compounds on the intestinal bacterial colonies was examined.
(§2) Each of the present compounds was orally administered to mice (one group consisting of five female ICR mice of 6-week-old) for two consecutive days at a dose of 500 mg/kg/day.
(§3) Before and on the first day after the administration, feces of each mouse was collected and diluted with an anerobic diluent (phosphoric buffer solution) of 100 times volume and ground. 0.1 ml of the diluted and ground feces was smeared on each culture medium shown in Table 1 and cultured aerobically or anaerobically (according to the anaerobic glove box method) under each condition shown in Table 1.
DHL agar aerobic, 37° C., one day

Another assay has as its system Pseudomonas aeruginosa. Description: Effect on intestinal bacterial colonies, Ps. aeruginosa count in feces. In kind it is in vivo. The conditions noted are these: female ICR mice, oral 500 mg/kg/day for two days, first day after administration; before administration <3.0. The protocol:
as §1, §2, §3
NAC agar aerobic, 37° C., one day

In another assay the test system is Streptococcus spp. Briefly: Effect on intestinal bacterial colonies, Streptococcus count in feces. In kind it is in vivo. Particulars: female ICR mice, oral 500 mg/kg/day for two days, first day after administration; before administration 6.8. The protocol: as §1, §2, §3
TATAC agar aerobic, 37° C., one day

The test system of assay [1] is Lactobacillus acidophilus. Description: Effect on intestinal bacterial colonies, L. acidophilus count in feces. The assay is classed as in vivo. The conditions noted are these: female ICR mice, oral 500 mg/kg/day for two days, first day after administration; before administration 9.0. The protocol:
as §1, §2, §3
Lactobacillus acidophilus
LBS agar anaerobic, 37° C., five

The next assay deals with Lactobacillus bifidus. Description: Effect on intestinal bacterial colonies, L. bifidus count in feces. In kind it is in vivo. The conditions noted are these: female ICR mice, oral 500 mg/kg/day for two days, first day after administration; before administration 8.4. The protocol: as §1, §2, §3
BS agar anaerobic, 37° C., five

Another assay concerns Bacteroides. Description: Effect on intestinal bacterial colonies, Bacteroides count in feces. In kind it is in vivo. The conditions noted are these: female ICR mice, oral 500 mg/kg/day for two days, first day after administration; before administration 8.3. As for the experimental part:
as §1, §2, §3
Bacteroides NBGT agar anaerobic, 37° C., five

For assay [2], the system named is Escherichia coli IFO 12734. Description: Antibacterial activity (MIC), agar plate, E. coli. Particulars: E. coli IFO 12734, Mueller-Hinton agar, 37° C., 18 to 24 hours; unit assumed. In kind it is cell-based. The protocol:
(§4) Antibacterial activity of the present compounds was examined as follows.
(§5) Antibacterial activity of each of the present compounds was examined against the following two bacteria according to the standard method of Japan Society of Chemotherapy:
Escherichia coli IFO 12734 and
(§6) Each bacterial strain was inoculated into the Mueller-Hinton's culture medium and cultured at 37° C. for 18 to 48 hours. The culture medium was diluted so as to contain 1×10^6 cells of the bacteria per one ml, and the obtained medium was used as the bacterial specimen.
(§7) Agar plates were prepared by adding one part by weight of each solution of the present compounds having a predetermined concentration to nine parts by weight of Mueller-Hinton's culture medium.
(§8) A loopful amount of the bacterial specimen prepared above was smeared to make a streak of about 2 cm on each agar plate and cultured at 37° C. for 18 to 24 hours. The minimum concentration for completely inhibiting proliferation of the bacteria (referred as MIC) was determined.

Assay [3] deals with Staphylococcus aureus IAM 1011. Description: Antibacterial activity (MIC), agar plate, Staph. aureus. The assay is classed as cell-based. The conditions noted are these: Staph. aureus IAM 1011, Mueller-Hinton agar, 37° C., 18 to 24 hours; unit assumed. The protocol: as §4, §5
Staphylococcus aureus IAM 1011
as §6, §7, §8

Assay [4] relates to Staphylococcus aureus IAM 1011. Briefly: Activation by rat liver homogenate (S-9 mix), penicillin cup proliferation-inhibiting circle. In kind it is cell-based. Particulars: compound solution 100 μg/ml, ratio of circle diameter to conventional penicillin antibiotic; for Proliferation-inhibiting index (%), after adding S-9 mix: incubated with S-9 mix 37° C., 20 min; for Proliferation-inhibiting index (%), before adding S-9 mix: phosphoric buffer control without S-9. As for the experimental part: As an enzyme for activating metabolism, a rat liver homogenate (S-9, manufactured by Oriental Yeast Company, Japan) was used in the following composition per one ml (hereinafter referred to as S-9 mix).
0.1 ml of each solution of the present compounds at a concentration of 100 μg/ml was mixed with 0.9 ml of S-9 mix or 0.9 ml of 0.1M phosphoric buffer solution (as a control) and the obtained mixture was incubated at 37° C. for 20 min with shaking.
Staphylococcus aureus IAM 1011 was inoculated into a Mueller-Hinton's culture medium and cultured at 37° C. for 18 hours. The culture medium was adjusted to a cell concentration of 1×10^8 per one ml and mixed with 50 times by volume of Mueller-Hinton's agar culture medium to obtain an agar plate.
A penicillin cup of 8 mm in diameter was placed on the agar plate prepared above, and into the cup 0.1 ml of the mixture was introduced and allowed to stand at 4° C. for 2 hours and then cultured at 37° C. for 18 hours to measure the diameter of a circle in which the proliferation of bacteria was inhibited (proliferation-inhibiting circle). In Table 4, the proliferation-inhibitingindex is shown with the ratio (%) of the diameter of the proliferation-inhibiting circle obtained by using each of the present compounds to that obtained by using the comparative compound (conventionalpenicillin antibiotic).

As to `CC(=O)OC[C@H]1OC(OC(=O)[C@@H]2N3C(=O)[C@@H](NC(=O)COc4ccccc4)[C@H]3SC2(C)C)[C@H](OC(C)=O)[C@@H](OC(C)=O)[C@@H]1OC(C)=O` (some centres unmarked) [Example 1], the “Logarithmic value of the number of bacterial cells per one gram of feces, E. coli” value with Escherichia coli is reported as 7.2 logarithmic value; cells per o. Besides, in the assay with Pseudomonas aeruginosa, the “Logarithmic value of the number of bacterial cells per one gram of feces, Ps. aeruginosa” value was < 3.0 logarithmic value; cells per o. Also, in the assay on Streptococcus spp., the “Logarithmic value of the number of bacterial cells per one gram of feces, Strept. spp.” value is reported as 6.8 logarithmic value; cells per o. Moreover, the “Logarithmic value of the number of bacterial cells per one gram of feces, L. acidophilus” value in [1] is reported as 9.1 logarithmic value; cells per o. Besides, the “Logarithmic value of the number of bacterial cells per one gram of feces, L. bifidus” value in the assay with Lactobacillus bifidus is 8.6 logarithmic value; cells per o. In the assay on Bacteroides, the “Logarithmic value of the number of bacterial cells per one gram of feces, Bacteroides” value is given as 8.5 logarithmic value; cells per o. The same compound yielded an MIC, E. coli in [2] of at least 200 µg/mL. This compound returned an MIC, Staph. aureus in assay [3] of 0.39 µg/mL (≈ 0.573 µM). Besides, in [4], the “Proliferation-inhibiting index (%), after adding S-9 mix” value was “± (0-1)” and the “Proliferation-inhibiting index (%), before adding S-9 mix” value is listed as “- (0)”.
As to `Cc1ncc(CO)c(C=NC(C(=O)N[C@@H]2C(=O)N3[C@@H]2SC(C)(C)[C@@H]3C(=O)O)c2ccccc2)c1O` (some centres unmarked) [Example 6], the MIC, E. coli in [2] was at least 100 µg/mL. In assay [3], this compound gave an MIC, Staph. aureus of at least 12.5 µg/mL. Further, in [4], the “Proliferation-inhibiting index (%), after adding S-9 mix” value is reported as “+++ (66-100)” and the “Proliferation-inhibiting index (%), before adding S-9 mix” value is on record as “++ (33-66)”.
For the compound `CC(=O)Nc1ccc(C(=O)N[C@@H](C(=O)N[C@@H]2C(=O)N3[C@@H]2SC(C)(C)[C@@H]3C(=O)O)c2ccccc2)cc1` [Example 7, 7-[N-(p-acetylaminobenzoicamido)-D-phenylglycineamido]penicillanic acid], the “Logarithmic value of the number of bacterial cells per one gram of feces, E. coli” value with Escherichia coli is 6.5 logarithmic value; cells per o. In addition, the “Logarithmic value of the number of bacterial cells per one gram of feces, Ps. aeruginosa” value in the assay on Pseudomonas aeruginosa is recorded as < 3.0 logarithmic value; cells per o. Further, in the assay on Streptococcus spp., the “Logarithmic value of the number of bacterial cells per one gram of feces, Strept. spp.” value is 6.4 logarithmic value; cells per o. Besides, the “Logarithmic value of the number of bacterial cells per one gram of feces, L. acidophilus” value in assay [1] was 9.0 logarithmic value; cells per o. For the same compound, the “Logarithmic value of the number of bacterial cells per one gram of feces, L. bifidus” value with Lactobacillus bifidus was 8.2 logarithmic value; cells per o. Also, the “Logarithmic value of the number of bacterial cells per one gram of feces, Bacteroides” value in the assay on Bacteroides is reported as 8.0 logarithmic value; cells per o. Moreover, the MIC, E. coli in [2] is at least 100 µg/mL. Further, in [3], the MIC, Staph. aureus was at least 12.5 µg/mL.
With `CC(=O)Nc1ccc(C(=O)NCC(=O)N[C@@H](C(=O)N[C@@H]2C(=O)N3[C@@H]2SC(C)(C)[C@@H]3C(=O)O)c2ccccc2)cc1` [Example 8, 7-[N-(p-acetylaminohippuric acid amido)-O-phenylglycineamido]penicillanic acid], the “Logarithmic value of the number of bacterial cells per one gram of feces, E. coli” value with Escherichia coli is 6.4 logarithmic value; cells per o. In the assay with Pseudomonas aeruginosa, the “Logarithmic value of the number of bacterial cells per one gram of feces, Ps. aeruginosa” value was < 3.0 logarithmic value; cells per o. In addition, in the assay on Streptococcus spp., the “Logarithmic value of the number of bacterial cells per one gram of feces, Strept. spp.” value is 6.7 logarithmic value; cells per o. In addition, the “Logarithmic value of the number of bacterial cells per one gram of feces, L. acidophilus” value in [1] is recorded as 9.2 logarithmic value; cells per o. Moreover, in the assay on Lactobacillus bifidus, the “Logarithmic value of the number of bacterial cells per one gram of feces, L. bifidus” value is reported as 8.5 logarithmic value; cells per o. The “Logarithmic value of the number of bacterial cells per one gram of feces, Bacteroides” value in the assay on Bacteroides was 8.1 logarithmic value; cells per o. In [2], this compound yielded an MIC, E. coli of at least 100 µg/mL. The MIC, Staph. aureus in assay [3] was at least 12.5 µg/mL.
On to `CCOCOC(=O)[C@@H]1N2C(=O)[C@@H](NC(=O)COc3ccccc3)[C@H]2SC1(C)C` [Example 10], for which, in the assay on Escherichia coli, the “Logarithmic value of the number of bacterial cells per one gram of feces, E. coli” value is given as 6.4 logarithmic value; cells per o. Further, the “Logarithmic value of the number of bacterial cells per one gram of feces, Ps. aeruginosa” value in the assay on Pseudomonas aeruginosa is < 3.0 logarithmic value; cells per o. In the assay on Streptococcus spp., the “Logarithmic value of the number of bacterial cells per one gram of feces, Strept. spp.” value is reported as 6.6 logarithmic value; cells per o. The “Logarithmic value of the number of bacterial cells per one gram of feces, L. acidophilus” value in assay [1] was 9.0 logarithmic value; cells per o. The “Logarithmic value of the number of bacterial cells per one gram of feces, L. bifidus” value in the assay on Lactobacillus bifidus is given as 8.4 logarithmic value; cells per o. Further, the “Logarithmic value of the number of bacterial cells per one gram of feces, Bacteroides” value in the assay with Bacteroides was 8.2 logarithmic value; cells per o. Further, in [2], the MIC, E. coli is at least 25 µg/mL. In addition, the MIC, Staph. aureus in [3] is 12.5 µg/mL (≈ 30.6 µM).
